# Test results published in the supplement of paper PMC10307832.
# Experiments:
# Assay in all cases: relative viability (nuclei count vs DMSO), 5 days (fraction); higher = more cells survive
# COR-L23 = test system: COR-L23
# Outline: (§1)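 Values are medians from duplicate plates. Each reflects relative viability, defined as the nuclei count of treated wells over that of vehicle wells. Lung cancer cell lines in 1536-well plates were pin-tool dosed one day after seeding with one drug alone or with a fixed anchor-drug dose plus five library-drug doses (not always all listed) in √10 steps, then fixed, stained and imaged at 4× after 5 days.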
# ChaGo-K-1 = test system: ChaGo-K-1
# Outline: as §1
# EPLC-272H = test system: EPLC-272H
# Outline: as §1
# HCC-15 = test system: HCC-15
# Outline: as §1
# HCC-366 = test system: HCC-366
# Outline: as §1
# HCC-44 = test system: HCC-44
# Outline: as §1
# HCC-827 = test system: HCC-827
# Outline: as §1
# LCLC-103H = test system: LCLC-103H
# Outline: as §1
# NCI-H1355 = test system: NCI-H1355
# Outline: as §1
# NCI-H1734 = test system: NCI-H1734
# Outline: as §1
# NCI-H1793 = test system: NCI-H1793
# Outline: as §1
# NCI-H1944 = test system: NCI-H1944
# Outline: as §1
# NCI-H2009 = test system: NCI-H2009
# Outline: as §1
# NCI-H2023 = test system: NCI-H2023
# Outline: as §1
# NCI-H2085 = test system: NCI-H2085
# Outline: as §1
# NCI-H2228 = test system: NCI-H2228
# Outline: as §1
# NCI-H2347 = test system: NCI-H2347
# Outline: as §1
# NCI-H2405 = test system: NCI-H2405
# Outline: as §1
# NCI-H3122 = test system: NCI-H3122
# Outline: as §1
# PC-14 = test system: PC-14
# Outline: as §1
# SW 1573 = test system: SW 1573
# Outline: as §1
compound,measurement,setting,value
CN1CCN(CCOc2cc(OC3CCOCC3)c3c(Nc4c(Cl)ccc5c4OCO5)ncnc3c2)CC1 [Saracatinib] + Nc1nc2[nH]cc(CCc3ccc(C(=O)N[C@@H](CCC(=O)O)C(=O)O)cc3)c2c(=O)[nH]1 [Pemetrexed] (partner 0.2 µM),relative viability,COR-L23; first compound 0.02 µM,0.211
same,relative viability,COR-L23; first compound 0.2 µM,0.2
same,relative viability,COR-L23; first compound 0.6325 µM,0.176
same,relative viability,COR-L23; first compound 2 µM,0.184
same,relative viability,ChaGo-K-1; first compound 0.02 µM,0.28
same,relative viability,ChaGo-K-1; first compound 0.2 µM,0.254
same,relative viability,ChaGo-K-1; first compound 0.6325 µM,0.26
same,relative viability,ChaGo-K-1; first compound 2 µM,0.269
same,relative viability,EPLC-272H; first compound 0.02 µM,0.334
same,relative viability,EPLC-272H; first compound 0.2 µM,0.313
same,relative viability,EPLC-272H; first compound 0.6325 µM,0.239
same,relative viability,EPLC-272H; first compound 2 µM,0.251
same,relative viability,HCC-15; first compound 0.02 µM,0.213
same,relative viability,HCC-15; first compound 0.2 µM,0.225
same,relative viability,HCC-15; first compound 0.6325 µM,0.219
same,relative viability,HCC-15; first compound 2 µM,0.222
same,relative viability,HCC-366; first compound 0.02 µM,0.162
same,relative viability,HCC-366; first compound 0.2 µM,0.17
same,relative viability,HCC-366; first compound 0.6325 µM,0.189
same,relative viability,HCC-366; first compound 2 µM,0.17
same,relative viability,HCC-44; first compound 0.02 µM,0.645
same,relative viability,HCC-44; first compound 0.2 µM,0.607
same,relative viability,HCC-44; first compound 0.6325 µM,0.618
same,relative viability,HCC-44; first compound 2 µM,0.667
same,relative viability,HCC-827; first compound 0.02 µM,0.286
same,relative viability,HCC-827; first compound 0.2 µM,0.158
same,relative viability,HCC-827; first compound 0.6325 µM,0.189
same,relative viability,HCC-827; first compound 2 µM,0.168
same,relative viability,LCLC-103H; first compound 0.02 µM,0.444
same,relative viability,LCLC-103H; first compound 0.2 µM,0.329
same,relative viability,LCLC-103H; first compound 0.6325 µM,0.451
same,relative viability,LCLC-103H; first compound 2 µM,0.48
same,relative viability,NCI-H1355; first compound 0.02 µM,1
same,relative viability,NCI-H1355; first compound 0.2 µM,1.02
same,relative viability,NCI-H1355; first compound 0.6325 µM,1
same,relative viability,NCI-H1355; first compound 2 µM,1.06
same,relative viability,NCI-H1734; first compound 0.02 µM,0.418
same,relative viability,NCI-H1734; first compound 0.6325 µM,0.414
same,relative viability,NCI-H1734; first compound 2 µM,0.4
same,relative viability,NCI-H1793; first compound 0.02 µM,0.947
same,relative viability,NCI-H1793; first compound 0.2 µM,0.766
same,relative viability,NCI-H1793; first compound 0.6325 µM,0.743
same,relative viability,NCI-H1793; first compound 2 µM,0.568
same,relative viability,NCI-H1944; first compound 0.02 µM,0.533
same,relative viability,NCI-H1944; first compound 0.2 µM,0.663
same,relative viability,NCI-H1944; first compound 0.6325 µM,0.626
same,relative viability,NCI-H1944; first compound 2 µM,0.429
same,relative viability,NCI-H2009; first compound 0.02 µM,1.01
same,relative viability,NCI-H2009; first compound 0.2 µM,0.962
same,relative viability,NCI-H2009; first compound 0.6325 µM,0.993
same,relative viability,NCI-H2009; first compound 2 µM,1.05
same,relative viability,NCI-H2023; first compound 0.02 µM,0.229
same,relative viability,NCI-H2023; first compound 0.2 µM,0.189
same,relative viability,NCI-H2023; first compound 0.6325 µM,0.202
same,relative viability,NCI-H2023; first compound 2 µM,0.191
same,relative viability,NCI-H2085; first compound 0.02 µM,0.929
same,relative viability,NCI-H2085; first compound 0.2 µM,0.838
same,relative viability,NCI-H2085; first compound 0.6325 µM,0.85
same,relative viability,NCI-H2085; first compound 2 µM,0.63
same,relative viability,NCI-H2228; first compound 0.02 µM,0.355
same,relative viability,NCI-H2228; first compound 0.2 µM,0.342
same,relative viability,NCI-H2228; first compound 0.6325 µM,0.332
same,relative viability,NCI-H2228; first compound 2 µM,0.266
same,relative viability,NCI-H2347; first compound 0.02 µM,0.435
same,relative viability,NCI-H2347; first compound 0.2 µM,0.421
same,relative viability,NCI-H2347; first compound 0.6325 µM,0.464
same,relative viability,NCI-H2347; first compound 2 µM,0.429
same,relative viability,NCI-H2405; first compound 0.02 µM,0.995
same,relative viability,NCI-H2405; first compound 0.2 µM,0.671
same,relative viability,NCI-H2405; first compound 0.6325 µM,0.843
same,relative viability,NCI-H2405; first compound 2 µM,0.488
same,relative viability,NCI-H3122; first compound 0.02 µM,0.195
same,relative viability,NCI-H3122; first compound 0.2 µM,0.169
same,relative viability,NCI-H3122; first compound 0.6325 µM,0.197
same,relative viability,NCI-H3122; first compound 2 µM,0.169
same,relative viability,PC-14; first compound 0.02 µM,0.133
same,relative viability,PC-14; first compound 0.2 µM,0.114
same,relative viability,PC-14; first compound 0.6325 µM,0.118
same,relative viability,PC-14; first compound 2 µM,0.111
same,relative viability,SW 1573; first compound 0.02 µM,0.823
same,relative viability,SW 1573; first compound 0.2 µM,0.899
same,relative viability,SW 1573; first compound 0.6325 µM,0.794
same,relative viability,SW 1573; first compound 2 µM,0.767
